Results published in PubChem BioAssay AID330 (DTP/NCI, 2004).
“And” between values parts separate entries of the source, which are not always exact repeats. Equal entries are not always repeated. Inconclusive results and toxic doses are left out. The calls were made as follows: active = survival T/C of 150% or more; inactive = T/C below 125% in these data.

Tested on: P388 leukemia ip, CD2F1 mice, survival T/C
Test: NCI In Vivo Anticancer Drug Screen. Data for tumor model P388 Leukemia (intraperitoneal) in CD2F1 (CDF1) mice
Conditions: endpoint: median survival time, higher = longer survival
Method in brief: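 Mice carrying the transplanted tumor received test compound or vehicle. Survival was recorded in each group, and the value is the treated-group measurement divided by that of the vehicle-treated control group.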

[1] = dose: 100.0 mg/kg/injection, schedule: Q04DX003 (ip), vehicle: saline with Tween-80

Measured: T/C

O=C1CSC(c2c(F)cccc2Cl)N1c1nncs1 (centres undefined)
inactive: dose: 60.0 mg/kg/injection, schedule: Q01DX005 (ip), vehicle: Klucel (hydroxypropylcellulose) (HPC) 102 % of control and 104 % of control | dose: 120.0 mg/kg/injection, schedule: Q01DX005 (ip), vehicle: Klucel (hydroxypropylcellulose) (HPC) 105 % of control

CCOC(=S)c1cc(C(=S)OCC)cc(C(C)(C)C)c1
inactive: [1] 103 % of control | dose: 200.0 mg/kg/injection, schedule: Q04DX003 (ip), vehicle: saline with Tween-80 108 % of control | dose: 400.0 mg/kg/injection, schedule: Q04DX003 (ip), vehicle: saline with Tween-80 113 % of control

O=C(O)c1ccc2nc(-c3ccccc3)cn2c1
inactive: dose: 12.5 mg/kg/injection, schedule: Q04DX003 (ip), vehicle: saline with Tween-80 98 % of control | dose: 25.0 mg/kg/injection, schedule: Q04DX003 (ip), vehicle: saline with Tween-80 98 % of control | dose: 50.0 mg/kg/injection, schedule: Q04DX003 (ip), vehicle: saline with Tween-80 101 % of control and 105 % of control | [1] 106 % of control
